Our source for the pest or weed control values is patent US9265253B2, “Use of macrocyclic picolinamides as fungicides” (DOW AGROSCIENCES LLC, priority 2013, dated 2016).

Test [1] has as its system Puccinia triticina; Synonym: Puccinia recondite f. Sp. Tritici. Description: Wheat Brown Rust (PUCCRT) disease control. The format is in vivo. The following applies: Puccinia triticina, topical; for pest or weed control at 100 ppm: rate 100 ppm; for pest or weed control at 121.5 g/ha: rate 121.5 g/H. The procedure, abridged: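 Brown rust on first-leaf Yuma wheat: spore inoculation before or after spray application (acetone/Triton X-100 solution, or EC with Trycol in track spray), overnight 100% RH at 22 °C, disease developed at 24 °C. Severity scored 0–100% and converted to percent control against untreated.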

For test [2], the system named is Mycosphaerella graminicola; Anamorph: Septoria tritici. Description: Leaf Blotch of Wheat (SEPTTR) disease control. Type of test: in vivo. As to conditions: Zymoseptoria tritici; for pest or weed control at 100 ppm: rate 100 ppm; for pest or weed control at 121.5 g/ha: rate 121.5 g/H. The method, boiled down:
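Wheat seedlings (Yuma, first leaf emerged) were sprayed to run-off with compound in acetone/water (1:9, 110 ppm Triton X-100) and inoculated with Septoria tritici spores before or after treatment. Disease severity (0–100%) was scored once untreated first leaves were fully symptomatic; control was calculated relative to untreated plants.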

Setting [3] is: 24 h, 1 Day Protectant, read-out: PUCCRT 1 DP disease control.
Setting [4] is: 72 h, 3 Day Curative, read-out: PUCCRT 3 DC disease control.
[5] abbreviates: 24 h, 1 Day Protectant, read-out: SEPTTR 1 DP disease control.
Where [6] appears, read: 72 h, 3 Day Curative, read-out: SEPTTR 3 DC disease control.

The structures appear in SMILES notation. Like-named read-outs stand apart in the source and are kept apart here.

Turning to `COc1ccnc(C(=O)N[C@H]2CCC[C@H](Cc3ccc(F)cc3)[C@@H](OC(=O)C(C)C)[C@H](C)OC2=O)c1O` [Compound F17], the pest or weed control at 100 ppm in test [1] (setting [3]) was 80 to 100%; in test [1] (setting [4]) it was 0 to 80%; in test [2] (setting [5]) it was 80 to 100%; in test [2] (setting [6]) it was 80 to 100%.

For `CC[C@H]1CCC[C@H](NC(=O)c2nccc(OC)c2O)C(=O)O[C@@H](C)[C@@H]1OCC(C)C` [Compound F48], the pest or weed control at 100 ppm in test [1] (setting [3]), in test [1] (setting [4]), in test [2] (setting [5]) and in test [2] (setting [6]) was 80 to 100% throughout.

Consider `CCOCC(=O)OCOc1c(OC)ccnc1C(=O)N[C@H]1CCC[C@H](Cc2ccc(F)cc2)[C@@H](OCC(F)F)[C@H](C)OC1=O` [Compound F169], for which the pest or weed control at 100 ppm was 80 to 100% in test [1] (setting [3]), 80 to 100% in test [1] (setting [4]), 80 to 100% in test [2] (setting [5]) and 0 to 80% in test [2] (setting [6]). The pest or weed control at 121.5 g/ha in test [1] (setting [3]), in test [1] (setting [4]), in test [2] (setting [5]) and in test [2] (setting [6]) was 80 to 100% each time.

In the case of `COc1ccnc(C(=O)N[C@H]2CCC[C@H](CCC(C)C)[C@@H](OC3CCCC3)[C@H](C)OC2=O)c1O` [Compound F6], the pest or weed control at 100 ppm in test [1] (setting [3]), in test [1] (setting [4]), in test [2] (setting [5]) and in test [2] (setting [6]) was 80 to 100% throughout.

Take `CCOCC(=O)OCOc1c(OC)ccnc1C(=O)N[C@H]1CCC[C@H](CCC(C)C)[C@@H](OCC(C)C)[C@H](C)OC1=O` [Compound F159]: the pest or weed control at 100 ppm in test [1] (setting [3]), in test [1] (setting [4]), in test [2] (setting [5]) and in test [2] (setting [6]) was 80 to 100% each time. For the same compound, the pest or weed control at 121.5 g/ha fell in the range of 80 to 100% in test [1] (setting [3]), 0 to 80% in test [1] (setting [4]), 80 to 100% in test [2] (setting [5]) and 80 to 100% in test [2] (setting [6]).

In the case of `COc1ccnc(C(=O)N[C@H]2CCC[C@H](Cc3ccc(F)cc3)[C@@H](OCC(F)F)[C@H](C)OC2=O)c1OC(C)=O` [Compound F69], the pest or weed control at 100 ppm in test [1] (setting [3]), in test [1] (setting [4]), in test [2] (setting [5]) and in test [2] (setting [6]) was 80 to 100% each time. Besides, the pest or weed control at 121.5 g/ha in test [1] (setting [3]), in test [1] (setting [4]), in test [2] (setting [5]) and in test [2] (setting [6]) was 80 to 100% throughout.

Turning to `CCO[C@@H]1[C@@H](Cc2ccccc2)CCC[C@H](NC(=O)c2nccc(OC)c2O)C(=O)O[C@H]1C` [Compound F23], the pest or weed control at 100 ppm in test [1] (setting [3]), in test [1] (setting [4]), in test [2] (setting [5]) and in test [2] (setting [6]) was 80 to 100% in each case.

In the case of `COc1ccnc(C(=O)N[C@H]2CCC[C@H](Cc3ccc(F)cc3)[C@@H](Oc3ccccc3)[C@H](C)OC2=O)c1OCOC(C)=O` [Compound F99], the pest or weed control at 100 ppm in test [1] (setting [3]), in test [1] (setting [4]), in test [2] (setting [5]) and in test [2] (setting [6]) was 80 to 100% in each case. Further, the pest or weed control at 121.5 g/ha in test [1] (setting [3]) was in the range of 80 to 100%; in test [1] (setting [4]) it was 0 to 80%; in test [2] (setting [5]), 80 to 100%; in test [2] (setting [6]) it was 80 to 100%.

Turning to `CCCO[C@@H]1[C@@H](Cc2ccc(OC)cc2)CCC[C@H](NC(=O)c2nccc(OC)c2O)C(=O)O[C@H]1C` [Compound F33], the pest or weed control at 100 ppm in test [1] (setting [3]), in test [1] (setting [4]), in test [2] (setting [5]) and in test [2] (setting [6]) was 80 to 100% in each case.
